Laboratory results as given in patent US20250338846A1, “COMPOSITIONS HAVING PESTICIDAL UTILITY AND PROCESSES RELATED THERETO” (CORTEVA AGRISCIENCE, LLC, priority 2022, published 2025).
“And” between values parts separate entries of the source, which are not always exact repeats. Equal values may be shown once.

Key:
[1] = system: Western Tarnished Plant Bug (Lygus hesperus, LYGUHE); test: Bioassay 4: Western Tarnished Plant Bug, soaked green bean segments, living nymphs 3 days after application; format: in vivo
Procedure: where X=No. of live nymphs on solvent check leaf discs and Y=No. of live nymphs on treated leaf discs. In Table B3 the “Expected % Control” was calculated using the method described in Colby S. R., Weeds, 1967, 15, 20-22. Bioassay 4: Western Tarnished Plant Bug (Lygus hesperus, LYGUHE) (“WTPB”).
Stock solutions were prepared with Formula One as well as for each of the active ingredients individually. Test solutions were prepared from the stock solutions. Test solutions were prepared containing Formula One, the individual active ingredients, and mixtures of Formula One with each of the active ingredients. The test solution for Formula One was prepared by adding 500 μL of the stock solution to a 25 mL glass vial, then adding 500 μL of acetone, followed by the addition of 9 mL water with 0.025% Tween®) 20 to create a 0.04% (w/v) solution. The test solutions of the individual active ingredients were prepared by adding 500 μL of stock solution to a 25 mL glass vial, then adding 500 μL of acetone, followed by the addition of 9 mL water with 0.025% Tween®) 20 to create a 0.005% (w/v) solution. The test solutions containing mixtures of Formula One and the individual active ingredients were prepared by adding 500 μL of the active ingredient stock solution to a 25 mL glass vial, followed by 500 μL of the Formula One stock solution, then by the addition of 9 mL water with 0.025% Tween®) 20 to create a test solution containing 0.04% (w/v) Formula One and 0.005% (w/v) of the active ingredient. Each test solution was serially diluted to create desired doses of test solutions (0.005% (w/v), 0.00125% (w/v), 0.0003125% (w/v), 0.000078% (w/v), and 0.0000195% (w/v)). In test solutions containing mixtures of Formula One and the active ingredients, the active ingredients were diluted as described above, but the Concentration of Formula One was held constant (0.04% (w/v)).
The test solutions were tested against WTPB using the following procedure: Fresh green beans were cut into segments approximately 1.5 inches long. Four bean segments were added to each 25 mL vial containing the test solutions and soaked for approximately 15 minutes. After soaking, a single bean fragment was removed and placed into a single well of a 32-well rearing tray (Frontier Agricultural Sciences™), on top of a round filter paper disc. A reference treatment (solvent check) was treated with the diluent only. Each treatment was replicated four times and the test treatments were held at approximately 26° C. and ambient relative humidity (RH) prior to grading. Bean segments were allowed to air dry for ˜30 minutes. Three WTPB nymphs were added to and contained in each well with a clear perforated adhesive lid. The total number of living WTPB nymphs was recorded 3 days after application. Scoring was based off the total number of living nymphs out of all four replicates. Percent control was measured using Abbott's correction formula (W. S. Abbott, J. Econ. Entomol. 18 (1925), pp. 265-267) as follows:
X=No. of live nymphs on solvent check and Y=No. of live nymphs on treated bean segments. In Table B4 the “Expected % Control” was calculated using the method described in Colby S. R., Weeds, 1967, 15, 20-22. Bioassay 5: Neotropical Brown Stink Bug (Euschistus heros, EUSCHE) (“BSB”).

[2] = system: Green Peach Aphid (Myzus persicae, MYZUPE); test: Bioassay 1: Green Peach Aphid, foliar spray on infested cabbage seedlings, live aphids counted three days after treatment; format: in vivo
Procedure: Bioassay 1: Green Peach Aphid (Myzus persicae, MYZUPE) (“GPA”).
The stock solutions were prepared with Formula One as well as for each of the active ingredients individually. Test solutions were prepared from the stock solutions. Test solutions were prepared containing Formula One, the individual active ingredients, and mixtures of Formula One with each of the active ingredients. The test solutions for Formula One and the individual active ingredients were prepared by adding 750 microliters (μL) of stock solution to a 25 mL glass vial, then adding 750 μL of 1:1 acetone: methanol solvent, followed by the addition of 13.5 ml water with 0.025% Tween®) 20 to create a 0.0005% (weight/volume (w/v)) solution. The test solutions containing mixtures of Formula One and the individual active ingredients were prepared by adding 750 μL of the active ingredient stock solution to a 25 mL glass vial, followed by 750 μL of the Formula One stock solution, then by the addition of 13.5 mL water with 0.025% Tween®) 20 to create a test solution containing 0.0005% (w/v) Formula One and 0.0005% (w/v) of the active ingredient. Each test solution was serially diluted to create desired doses of test solutions (0.0005% (w/v), 0.000125% (w/v), 0.00003125% (w/v), 0.0000078% (w/v), 0.00000195% (w/v), and 0.0000005% (w/v)).
The test solutions were tested against GPA using the following procedure: Cabbage seedlings, grown in 3-inch pots with 2-3 small (3-5 centimeter (cm)) true leaves, were used as test substrate. The seedlings were infested with 20-50 GPA (wingless adult and nymph stages) one day prior to chemical application. Four pots with individual seedlings were used for each treatment. A hand-held aspirator-type sprayer was used for spraying a solution to both sides of […] leaves until runoff. Reference plants (solvent check) were sprayed with the diluent only (0.025% Tween®) 20 and 10% acetone:methanol (1:1) in water). Treated plants were held in a holding room for three days at approximately 25° C. and ambient relative humidity (RH about 20% to about 45%) prior to grading. Evaluation was conducted by counting the number of live aphids per plant under a microscope three days after treatment. Percent control was measured using Abbott's correction formula (W. S. Abbott, J. Econ. Entomol. 18 (1925), pp. 265-267) as follows:
where X=No. of live aphids on solvent check plants and Y=No. of live aphids on treated plants. In Table B1 the “Expected % Control” was calculated using the method described in Colby S. R., Weeds, 1967, 15, 20-22. Bioassay 2: Sweet Potato Whitefly (Bemisia tabaci, BEMITA) (“SPW”).

With Cc1c(COC(=O)[C@@H]2[C@H](/C=C(\Cl)C(F)(F)F)C2(C)C)cccc1-c1ccccc1 (racemic) [Bifenthrin] the “Average % Control AI” value ([1]; AI alone 0.00125 % w/v) was 17% and the “Average % Control AI” value ([2]; AI alone 0.78 (10^-5) % w/v) was 52%.
CC1(C)[C@H](C(=O)O[C@H](C#N)c2cccc(Oc3ccccc3)c2)[C@@H]1/C=C(\Cl)C(F)(F)F (racemic) [Lambda Cyhalothrin] was tested, and the “Average % Control AI” value ([1]; AI alone 0.000078 % w/v) was 0% and the “Average % Control AI” value ([2]; AI alone 0.78 (10^-5) % w/v) was 40%.
COP(=O)(NC(C)=O)SC (stereo not drawn) [Acephate] was tested, and the “Average % Control AI” value ([1]; AI alone 0.005 % w/v) was 0%.
C/C(=N\C#N)N(C)Cc1ccc(Cl)nc1 [Acetamiprid] was tested, and the “Average % Control AI” value ([1]; AI alone 0.00125 % w/v) was 0% and the “Average % Control AI” value ([2]; AI alone 0.78 (10^-5) % w/v) was 24%.
In the case of CC[S+]([O-])c1c(C#N)nn(-c2c(Cl)cc(C(F)(F)F)cc2Cl)c1N (stereo not drawn) [Ethiprole], the “Average % Control AI” value ([2]; AI alone 3.125 (10^-5) % w/v) is reported as 0%.
In the case of CON=CNC(=O)c1ccc(C2=NOC(c3cc(Cl)cc(Cl)c3)(C(F)(F)F)C2)cc1C (stereo not drawn) [Fluxametamide], the “Average % Control AI” value ([2]; AI alone 12.5 (10^-5) % w/v) is reported as 0%.
In the case of CCN(C(=O)CCS(C)(=O)=O)c1sc(-c2cccnc2)nc1Cl [Formula F1, N-(4-chloro-2-(pyridin-3-yl)thiazol-5-yl)-N-ethyl-3-(methylsulfonyl)propanamide], the “Average % Control F1” value ([2]; F1 alone 0.05 (10^-5) % w/v) is reported as 29%, the “Average % Control F1” value ([2]; F1 alone 0.195 (10^-5) % w/v) is reported as 13% and the “Average % Control F1” value ([2]; F1 alone 0.78 (10^-5) % w/v) is reported as 28%. The “Average % Control F1” value ([2]; F1 alone 3.125 (10^-5) % w/v) was 30% and 35% and the “Average % Control F1” value ([2]; F1 alone 12.5 (10^-5) % w/v) was 39%.
For O=[N+]([O-])NC1=NCCN1Cc1ccc(Cl)nc1 [Imidacloprid], the “Average % Control AI” value ([1]; AI alone 0.00125 % w/v) was 13%.
In the case of CN1COCN(Cc2cnc(Cl)s2)/C1=N\[N+](=O)[O-] [Thiamethoxam], the “Average % Control AI” value ([1]; AI alone 0.0003125 % w/v) is reported as 65%.
Abamectin was tested, and the “Average % Control AI” value ([1]; AI alone 0.00125 % w/v) was 0%.
With Emamectin Benzoate the “Average % Control AI” value ([2]; AI alone 3.125 (10^-5) % w/v) was 21%.
